This note sets out measurements from patent EP0891991A2, “Tris(pentafluorophenyl)borate complexes and catalysts derived therefrom” (MINNESOTA MINING AND MANUFACTURING COMPANY, priority 1995, dated 1996).

This data set is described as follows: Stability of tris(pentafluorophenyl)borane hydrates. The class given is physicochemical. The settings on record: in solution or in the solid state. The source says: Of the class of compounds of the type (C6F5)3B-(YXH)q, when Y is hydrogen, X is oxygen, and q is 1 or 3, the complex with water is a special case. Exposure of anhydrous (C6F5)3B to water vapor, produces (C6F5)3B·3H2O, a white, stable solid. No intermediate hydrate was detected by infrared spectroscopic analysis. […] Formation of a trihydrate was unexpected because all other previously known (C6F5)3B complexes with Lewis bases have a 1:1 stoichiometry. Vacuum sublimation of the trihydrate produced a mixture of the monohydrate and (C6F5)3B. The pure monohydrate, (C6F5)3B·H2O, however may be obtained by combining in organic solvents, such as toluene or chloroform, one equivalent of (C6F5)3B·3H2O with two equivalents of (C6F5)3B followed by evaporation of the solvent. This conproportionation reaction is a convenient way of synthesizing the monohydrate as needed. […] The monohydrate may also be prepared by combining one mole each of water and (C6F5)3B.

As to `Fc1c(F)c(F)c(B(c2c(F)c(F)c(F)c(F)c2F)c2c(F)c(F)c(F)c(F)c2F)c(F)c1F.O` [Example 2], the stability entry is “unstable and slowly decomposes”.
